This note sets out measurements from patent US12186359B2, “Composition containing branched-chain amino acids” (priority 2019, dated 2025).

For the data set the following is noted: mouse, in vivo.

The structures appear in SMILES notation. Peptide text beside a SMILES is read from it.

Procedure: The aim of the study was to compare the exposure of L-Leucine-13C6, 15N, L-Isoleucine-13C6, 15N, L-Valine-13C5, 15N in plasma after their administration alone or in association with L-Alanine or L-Alanyl-L-alanine in the mouse. Plasma samples were analyzed by dean-up and derivatization using the EZfaast™ amino acid analysis kit (Phenomenex) and analyzed by UPLC-MSMS.
CD1 mouse with body weights of 25-30 gr at the time of the treatment were used in this study, approximate age was about 4 weeks according to growth curve. The animals were originally supplied by Harlan, Italy. Once receipt from the supplier, the animals were subjected to health examinations and acceptance. The animals were housed, in a group of five, in cages suitable for the species. The animals were acclimatized to local housing conditions for approximately 5 days. The animals were routinely kept in the following environment except for short periods of time where experimental procedures dictated otherwise. The animals were housed in a single, exclusive room, air conditioned to provide a minimum of 15 air changes/hour. […] Clinical signs were monitored at regular intervals throughout the study in order to assess any reaction to treatment. […]

Regarding `C[C@H](N)C(=O)N[C@@H](C)C(=O)O` [L-Alanyl-L-alanine] (H-Ala-Ala-OH), the “Plasma concentrations of the labelled amino acids (AUC0-24 h), rank among groups” value is listed as “highest concentrations”.
